Data on three compounds can be found in patent publication EP0842933B1, “NOVEL NAPHTHYRIDINE DERIVATIVES” (SUMITOMO PHARMACEUTICALS COMPANY, LIMITED, priority 1995, dated 1996).

The subject of test [1] is ACAT. Description: Assay of ACAT inhibitory activity in a specimen prepared from rabbit liver. Format: biochemical, New Zealand white rabbit. Conditions: enzyme specimen from liver of cholesterol-fed rabbit, [1-^14C]oleoyl-CoA and endogenous cholesterol. On the procedure: 1. Assay of ACAT inhibitory activity in a specimen prepared from rabbit liver
An enzyme specimen ACAT was prepared according to the method disclosed in the literature: J. Lipid. Research, 30, 681-690, 1989, from the liver of New Zealand white rabbit which had been fed with 1 % cholesterol feed for one month. The ACAT activity was determined according to the method disclosed in the literature: J. Lipid Research. 24, 1127-1134, 1983, i.e., using radioactive [1-^14C]oleoyl-CoA and endogenous cholesterol contained in the liver microsome, and calculated from the radioactivity of the labeled cholesterol oleate.

For test [2], the target named is T1, ACAT (Rattus norvegicus, UniProt O70536).
T1 construct: endogenous in cells; host or cells: rat peritoneal macrophages (primary cells)
T1 sequence (O70536 1-545): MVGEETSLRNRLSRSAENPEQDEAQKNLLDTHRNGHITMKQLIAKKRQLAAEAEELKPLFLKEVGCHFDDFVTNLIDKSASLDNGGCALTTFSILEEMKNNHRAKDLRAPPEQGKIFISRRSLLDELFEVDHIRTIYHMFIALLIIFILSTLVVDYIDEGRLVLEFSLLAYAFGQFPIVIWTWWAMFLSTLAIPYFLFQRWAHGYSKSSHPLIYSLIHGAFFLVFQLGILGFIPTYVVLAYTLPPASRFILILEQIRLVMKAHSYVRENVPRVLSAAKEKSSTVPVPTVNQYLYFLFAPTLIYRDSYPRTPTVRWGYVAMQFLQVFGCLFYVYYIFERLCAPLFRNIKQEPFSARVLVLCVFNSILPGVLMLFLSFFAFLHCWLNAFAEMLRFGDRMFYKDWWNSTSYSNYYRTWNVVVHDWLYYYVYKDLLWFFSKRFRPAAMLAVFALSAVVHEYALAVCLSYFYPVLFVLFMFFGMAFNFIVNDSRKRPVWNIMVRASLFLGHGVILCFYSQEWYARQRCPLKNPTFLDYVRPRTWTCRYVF
Description: Assay of ACAT inhibitory activity in the macrophage derived from rat peritoneal. Format: cell-based. The following applies: 10^-6 M, radioactive oleic acid and exogenous cholesterol in liposome, read-out: ACAT inhibitory rate (%) 10^-6 M. How it is done: 2. Assay of ACAT inhibitory activity in the macrophage derived from rat peritoneal
The rat peritoneal-derived macrophage was prepared according to the method disclosed in the literature: Biochimica et Biophysica Acta, 1126, 73-80, 1992. The ACAT activity was determined by a modified method of the method disclosed in the above literature: Biochimica et Biophysica Acta, 1126, 73-80, 1992, i.e., using radioactive [9,10-H]oleic acid and exogenous cholesterol contained in the liposome which was re-constituted according to the method disclosed in the literature: Biochimica Biophysica Acta, 1213, 127-134, 1994, and calculated from the labeled cholesterolyl oleate.

With `CC(C)c1cccc(C(C)C)c1NC(=O)Nc1c(-c2ccccc2Cl)c2cccnc2n(C)c1=O` [Example 4, N-[1-methyl-4-(2-chlorophenyl)-1,2-dihydro-2-oxo-1,8-naphthyridin-3-yl]-N'-(2,6-diisopropylphenyl)urea], in test [1], the “ACAT inhibitory rate (%) 10^-6 M” value amounted to 87%. The inhibition at 1 µM in test [2] amounted to 88%.

As for `CC(C)c1cccc(C(C)C)c1NC(=O)Nc1c(-c2ccccc2Cl)c2ccncc2n(C)c1=O` [Example 6, N-[1-methyl-4-(2-chlorophenyl)-1,2-dihydro-2-oxo-1,7-naphthyridin-3-yl]-N'-(2,6-diisopropylphenyl)urea], the “ACAT inhibitory rate (%) 10^-6 M” value in test [1] stood at 82%.

`COc1cccc(-c2c(NC(=O)Nc3c(C(C)C)cccc3C(C)C)c(=O)n(C)c3ncccc23)c1` [Example 7, N-[1-methyl-4-(3-methoxyphenyl)-1,2-dihydro-2-oxo-1,8-naphthyridin-3-yl]-N'-(2,6-diisopropylphenyl)urea]: in test [2], the inhibition at 1 µM worked out at 94%.
